# Data published in US20250066345A1, “COMPOSITIONS AND METHODS OF USE TO TREAT 12-LIPOXYGENASE (12-LOX) MEDIATED DISEASES” (VERALOX THERAPEUTICS, priority 2021, published 2025).
# Experiments:
# 12-LOX = 12-LOX (Homo sapiens (Human), UniProt P18054); assay: 12-LOX IC50 determination, UV-Vis assay with arachidonic acid substrate; format: biochemical; conditions: 30 nM 12-LOX, 50 μM AA, absorbance of 12-HPETE at 234 nm
# Description: (§1) The compounds were evaluated for inhibition of 12-LOX, as well as selectivity by measuring inhibition against 15-LOX for some compounds, using a UV-Vis assay. Arachidonic acid (AA) was used as a substrate for 12-LOX and 15-LOX. ML355 was used as the control inhibitor for 12-LOX. ML351 (5-(Methylamino)-2-(1-naphthalenyl)-4-oxazolecarbonitrile) was used as the control inhibitor for 15-LOX.
# (§2) Reaction buffers used for the lipoxygenase assay were as follows: 25 mM HEPES (pH 7.5), with 0.01% Triton X-100. 1 mM 12-HPETE or 1 mM 15-HPETE stock solution was prepared in 25 mM HEPES with 0.01% Triton X-100.
# The standard curve of 12-HPETE was made by serial dilution of 0, 6.25, 12.5, 25, 50, 75 and 100 μM, and the final reaction volume in 96 Well Clear Flat Bottom UV-Transparent Microplate is 100 μL. The absorbance of the 12-HPETE at each concentration was measured at 234 nm.
# (§3) IC50 values were obtained by determining the % inhibition at various inhibitor concentrations. The final concentrations of the control inhibitors and test compounds in the IC50 determination assay are 0, 0.03, 0.1, 0.3, 1, 3, 10 and 20 μM. The final concentration of DMSO in the assay is 0.05%.
# 12-LOX IC50 determination. The 12-LOX enzyme and AA were diluted in the HEPES buffer to 120 nM and 200 μM, respectively. Pre-incubation 50 μL of indicated test compounds and 25 μL 120 nM enzyme at room temperature for 5 min. The reaction is started by adding 25 μL 200 μM AA. After a short spin (1000 rpm, 15 s), incubate the reaction system for 5 min. The blank control was set by adding 25 μL HEPES to 50 μL of control inhibitor compound (MHL355) and 25 μL 200 μM AA. The final concentrations of 12-LOX enzyme and AA were 30 nM and 50 μM, respectively. The absorbance of the 12-HPETE at 234 nm was measured.
# (§4) The IC50 value was calculated by using GraphPad Prism 8.0.2.
# (§5) The IC50 values are calculated with remaining activity (%) and logarithm of inhibitor concentrations.
# (§6) Remaining Activity (%)=OD value inhibitor/OD value vehicle×100
# 15-LOX = 15-LOX (Homo sapiens (Human), UniProt P16050); assay: 15-LOX IC50 determination, UV-Vis assay with arachidonic acid substrate (selectivity); format: biochemical; conditions: selectivity for 12-LOX over 15-LOX; 120 nM 15-LOX, AA substrate
# Sequence of 15-LOX (P16050 whole entry): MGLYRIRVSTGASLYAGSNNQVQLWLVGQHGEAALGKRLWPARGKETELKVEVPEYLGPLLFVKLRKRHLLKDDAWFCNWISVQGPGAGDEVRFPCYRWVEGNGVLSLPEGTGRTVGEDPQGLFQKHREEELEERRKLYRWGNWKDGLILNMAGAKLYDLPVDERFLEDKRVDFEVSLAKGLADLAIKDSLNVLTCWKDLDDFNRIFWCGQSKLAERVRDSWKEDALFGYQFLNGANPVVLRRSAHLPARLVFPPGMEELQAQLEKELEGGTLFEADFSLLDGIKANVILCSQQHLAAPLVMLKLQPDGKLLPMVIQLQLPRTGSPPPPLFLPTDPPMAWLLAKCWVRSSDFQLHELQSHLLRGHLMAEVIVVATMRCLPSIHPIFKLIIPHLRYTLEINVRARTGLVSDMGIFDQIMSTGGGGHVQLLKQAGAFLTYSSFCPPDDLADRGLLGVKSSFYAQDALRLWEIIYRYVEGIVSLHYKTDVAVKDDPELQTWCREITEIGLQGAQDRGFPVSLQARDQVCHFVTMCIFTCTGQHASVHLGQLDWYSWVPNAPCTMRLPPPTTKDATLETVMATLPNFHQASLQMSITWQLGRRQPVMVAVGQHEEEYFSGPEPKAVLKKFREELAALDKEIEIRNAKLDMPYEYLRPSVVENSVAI
# Description: as §1, §2
# The standard curve of 15-HPETE was made by serial dilution of 0, 3.125, 6.25, 12.5, 25, 50 and 100 μM, and the final reaction volume in 96 Well Clear Flat Bottom UV-Transparent Microplate is 100 μL. The absorbance of the […] at each concentration was measured at 234 nm.
# as §3
# 15-LOX IC50 determination. The 15-LOX enzyme and AA were diluted in the HEPES buffer to 480 nM and 200 μM, respectively. Pre-incubation 50 μL of indicated test compounds and 25 μL 480 nM enzyme at room temperature for 5 min. The reaction is started by adding 25 μL 200 μM AA. After a short spin (1000 rpm, 15 s), incubate the reaction system for 3 min. The blank control was set by adding 25 μL HEPES to 50 μL of control inhibitor compound (MHL355) and 25 μL 200 μM AA. The final concentrations of 15-LOX enzyme and AA were 120 nM and 50 µM, respectively. The absorbance of the 15-HPETE at 234 nm was measured. The assay was performed in duplicate.
# as §4, §5, §6
# Sequence of 12-LOX (P18054 whole entry): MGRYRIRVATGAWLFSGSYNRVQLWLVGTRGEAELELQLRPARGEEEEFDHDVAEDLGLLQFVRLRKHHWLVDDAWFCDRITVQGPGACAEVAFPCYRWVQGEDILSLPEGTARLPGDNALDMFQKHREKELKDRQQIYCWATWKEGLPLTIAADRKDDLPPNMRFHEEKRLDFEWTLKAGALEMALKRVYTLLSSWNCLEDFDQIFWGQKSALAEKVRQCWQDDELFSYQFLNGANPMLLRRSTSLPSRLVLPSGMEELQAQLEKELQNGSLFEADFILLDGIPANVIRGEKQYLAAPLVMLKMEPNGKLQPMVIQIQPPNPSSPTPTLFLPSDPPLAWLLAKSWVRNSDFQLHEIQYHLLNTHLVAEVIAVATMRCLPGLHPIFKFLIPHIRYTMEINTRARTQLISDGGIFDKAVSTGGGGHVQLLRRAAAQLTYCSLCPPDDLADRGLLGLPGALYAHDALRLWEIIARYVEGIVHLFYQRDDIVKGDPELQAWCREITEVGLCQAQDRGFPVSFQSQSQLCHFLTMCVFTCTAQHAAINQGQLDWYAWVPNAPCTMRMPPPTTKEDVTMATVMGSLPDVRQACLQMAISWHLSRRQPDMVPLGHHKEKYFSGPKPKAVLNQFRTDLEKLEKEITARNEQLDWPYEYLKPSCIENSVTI
SMILES,IC50 (12-LOX) [nM],Selectivity over 15-LOX (15-LOX)
COc1cccc(CNc2ccc(S(=O)(=O)Nc3nc(-c4ccc(C(C)C)cc4)cs3)nc2)c1O [Compound I-4],< 250,>50-fold
[2H]C([2H])([2H])Oc1cccc(CNc2cnc(S(=O)(=O)Nc3nc(-c4ccc(F)c(F)c4)c(F)s3)c(C)c2)c1O [Compound I-50],250 to 1000,>50-fold
COc1cccc(CNc2ccc(S(=O)(=O)Nc3nc(-c4ccc(F)c(F)c4)c(F)s3)nc2)c1O [Compound I-6],< 250,>50-fold
COc1cccc(CNc2ccc(S(=O)(=O)Nc3nc(-c4ccc(F)c(F)c4)cs3)nc2)c1O [Compound I-7],< 250,>50-fold
COc1cccc(CNc2cnc(S(=O)(=O)Nc3nc(-c4ccc(Cl)c(F)c4)c(F)s3)c(C)c2)c1O [Compound I-23],< 250,>50-fold
COc1cccc(CNc2ccc(S(=O)(=O)Nc3nc(-c4ccc(F)c(Cl)c4)c(CO)s3)nc2)c1O [Compound I-24],< 250,>50-fold
COc1cccc(CNc2cnc(S(=O)(=O)Nc3nc(-c4ccc(F)c(F)c4)c(F)s3)c(C(F)(F)F)c2)c1O [Compound I-22],> 1000,<10-fold
COc1cccc(CNc2cnc(S(=O)(=O)Nc3nc(-c4ccc(F)c(Cl)c4)c(F)s3)c(-c3ccccc3)c2)c1O [Compound I-42],< 250,>50-fold
CCOc1cccc(CNc2cnc(S(=O)(=O)Nc3nc(-c4ccc(F)c(Cl)c4)c(F)s3)c(C)c2)c1O [Compound I-46],> 1000,<20-fold
COc1cccc(CNc2cnc(S(=O)(=O)Nc3nc(-c4ccc(F)c(F)c4)cs3)c(C)c2)c1O [Compound I-39],< 250,>50-fold
COc1cccc(CNc2cnc(S(=O)(=O)Nc3nc(-c4ccc(F)c(Cl)c4)c(F)s3)cc2C)c1O [Compound I-15],> 1000,<10-fold
COc1cccc(CNc2ccc(S(=O)(=O)Nc3nc(-c4ccc(F)c(Cl)c4)c(F)s3)nc2)c1O [Compound I-1],< 250,>50-fold
COc1cccc(CNc2ccc(S(=O)(=O)Nc3nc4ccccc4s3)nc2)c1O [Compound I-10],> 1000,–
COc1cccc(CNc2ccc(S(=O)(=O)Nc3nc(-c4ccc(F)c(Cl)c4)cs3)nc2)c1O [Compound I-9],250 to 1000,>50-fold
COc1cccc(CNc2cnc(S(=O)(=O)Nc3nc(-c4ccc(F)c(Cl)c4)c(F)s3)c(C(F)(F)F)c2)c1O [Compound I-17],< 250,>20-fold
[2H]C([2H])([2H])Oc1cccc(CNc2ccc(S(=O)(=O)Nc3nc(-c4ccc(Cl)c(F)c4)c(F)s3)nc2)c1O [Compound I-49],< 250,>50-fold
COc1cccc(CNc2ccc(S(=O)(=O)Nc3nc(-c4ccc(C(C)C)cc4)c(F)s3)nc2)c1O [Compound I-3],< 250,>20-fold
COc1cccc(CNc2ccc(S(=O)(=O)Nc3nc(-c4ccc(Cl)c(F)c4)c(F)s3)nc2)c1O [Compound I-2],< 250,>50-fold

SMILES,IC50 (12-LOX) [nM],Selectivity over 15-LOX (15-LOX)
[2H]C([2H])([2H])Oc1cccc(CNc2cnc(S(=O)(=O)Nc3nc(-c4ccc(Cl)c(F)c4)c(F)s3)c(C([2H])([2H])[2H])c2)c1O [Compound I-47],> 1000,<20-fold
"COc1cccc(CNc2cnc(S(=O)(=O)Nc3nc(-c4ccc(F)c(F)c4)c(F)s3)c(C)c2)c1O [Compound I-18, N-(4-(3,4-difluorophenyl)-5-fluorothiazol-2-yl)-5-((2-hydroxy-3-methoxybenzyl)amino)-3-methylpyridine-2-sulfonamide]",< 250,>50-fold
Cc1cc(NCc2cccc(OC(F)(F)F)c2O)cnc1S(=O)(=O)Nc1nc(-c2ccc(F)c(Cl)c2)c(F)s1 [Compound I-45],> 1000,<20-fold
COc1cccc(CN(C)c2cnc(S(=O)(=O)Nc3nc(-c4ccc(F)c(F)c4)cs3)c(C)c2)c1O [Compound I-19],> 1000,–
[2H]C([2H])([2H])Oc1cccc(CNc2cnc(S(=O)(=O)Nc3nc(-c4ccc(Cl)c(F)c4)c(F)s3)c(C)c2)c1O [Compound I-48],< 250,>50-fold
COc1cccc(CNc2ccc(S(=O)(=O)Nc3nc(-c4ccc(F)c(Cl)c4)c(F)s3)nc2C)c1O [Compound I-14],250 to 1000,~10-fold
COc1cccc(CNc2cnc(S(=O)(=O)Nc3nc(-c4ccc(F)c(Cl)c4)cs3)c(C)c2)c1O [Compound I-41],< 250,>50-fold
COc1cccc(CNc2ccc(S(=O)(=O)Nc3nc(-c4ccc(C(F)(F)F)c(F)c4)cs3)nc2)c1O [Compound I-12],< 250,>50-fold
COc1cccc(CNc2cnc(S(=O)(=O)Nc3nc(-c4ccc(F)c(Cl)c4)c(F)s3)c(C)c2)c1O [Compound I-16],< 250,>50-fold
COc1cccc(CN(C)c2ccc(S(=O)(=O)Nc3nc(-c4ccc(F)c(F)c4)c(F)s3)nc2)c1O [Compound I-11],250 to 1000,>20-fold
[2H]C([2H])([2H])Oc1cccc(CNc2cnc(S(=O)(=O)Nc3nc(-c4ccc(F)c(Cl)c4)c(F)s3)c(C)c2)c1O [Compound I-51],< 250,>50-fold
COc1cccc(CNc2ccc(S(=O)(=O)Nc3nc(-c4ccc(C5CC5)cc4)cs3)nc2)c1O [Compound I-5],< 250,>50-fold
COc1cccc(CNc2cnc(S(=O)(=O)Nc3nc(-c4ccc(Cl)c(F)c4)cs3)c(C)c2)c1O [Compound I-40],< 250,>50-fold
COc1cccc(CNc2ccc(S(=O)(=O)Nc3nc4c(ccc5ccccc54)s3)nc2)c1O [Compound I-13],< 250,>50-fold
COc1cccc(CNc2ccc(S(=O)(=O)Nc3nc(-c4ccc(C(F)(F)F)c(F)c4)c(F)s3)nc2)c1O [Compound I-25],< 250,>50-fold
COc1cccc(CNc2cnc(S(=O)(=O)Nc3nc(-c4ccc(F)c(Cl)c4)c(F)s3)c(C3CC3)c2)c1O [Compound I-43],> 1000,<20-fold
"COc1cccc(CNc2ccc(S(=O)(=O)Nc3nc(-c4ccc(Cl)c(F)c4)cs3)nc2)c1O [Compound I-8, N-(4-(4-chloro-3-fluorophenyl)thiazol-2-yl)-5-((2-hydroxy-3-methoxybenzyl)amino)pyridine-2-sulfonamide]",< 250,>50-fold
